Earlier results in patent publication US20180147234A1, “COMPOSITIONS AND METHODS FOR TREATMENT OF FIBROMYALGIA” (Luitpold Pharmaceuticals, Inc., priority 2015, published 2018).

Conditions: in vivo

Blood half-life: 10 to 14 h
Substance: polyglucose sorbitol carboxymethyl ether-coated non-stoichiometric magnetite [ferumoxytol]
